The structures appear in SMILES notation.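 Cultured in 96-well plates, cells were exposed to test compound for 48 hours across five concentrations. The concentration for 50% growth inhibition is given as GI50. TGI: concentration producing complete growth inhibition.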

Holding throughout (experiment): growth of human tumour cells (NCI), 48 h
Assay [1] deals with HCC-2998 colon.
Assay [2] relates to SF-268 CNS.
Assay [3] relates to NCI-H460 lung.
Assay [4] deals with U251 CNS.
The subject of assay [5] is HCT-15 colon.
In assay [6] the test system is COLO 205 colon.
For assay [7], the system named is SK-MEL-28 melanoma.
For assay [8], the system named is SN12C renal.
In assay [9] the test system is HCT-116 colon.
Assay [10] has as its system 786-0 renal.

Regarding `Cc1cc(O)ccc1C1(c2ccc(O)cc2C)OC(=O)c2ccccc21`, the GI50 in [1] is 18.5 µM; in [2], 19 µM; in [3] it was 19.7 µM; in assay [4] it was 19.9 µM; in assay [5], 16.3 µM; in assay [6], 16.8 µM. The GI50 in assay [7] was 17.3 µM; in [8], 19.5 µM; in [9], 18.6 µM; in [10], 16.8 µM. The TGI in [1] amounted to 33.9 µM; in [2] it was 43.9 µM; in assay [3], 40.4 µM; in assay [4] it was 36.6 µM; in [5], 30.7 µM; in assay [6], 32.3 µM. In addition, the TGI was 35.4 µM in [7], 39.9 µM in assay [8], 33.7 µM in assay [9] and 34 µM in assay [10].

On to `CC(C)n1cc(-c2ccc3c(c2)N(C)CC3)c2c(NS(=O)(=O)c3ccn(C)n3)ccnc21`, for which the GI50 was more than 100 µM in [1]; 62 µM in assay [2]; 47.9 µM in assay [3]; 61.9 µM in assay [4]; 35.9 µM in assay [5]; more than 100 µM in assay [6]. The GI50 is 34.5 µM in assay [7], 91.8 µM in assay [8], 48 µM in assay [9] and 43.7 µM in assay [10]. Further, the TGI in assay [1], in assay [2], in assay [3], in [4], in [5] and in assay [6] was more than 100 µM each time. For the same molecule, the TGI in assay [7], in assay [8], in assay [9] and in assay [10] was more than 100 µM throughout.

In the case of `COc1ccc(C2=C(c3ccccc3)C(=O)N3CCCC3C2)cc1` (centres undefined), the GI50 is 2.27 µM in assay [1]; 26 µM in [2]; 0.336 µM in assay [4]; less than 0.0249 µM in assay [5]; 0.241 µM in assay [6]; more than 62.5 µM in assay [7]. In addition, the results for the GI50 in [8], in assay [9] and in assay [10] were 13 µM, 0.0817 µM and 1.13 µM, respectively. Besides, the TGI in [1] was more than 55.5 µM; in assay [2], more than 100 µM; in assay [3], more than 62.9 µM; in assay [4], more than 100 µM; in assay [5] it was more than 100 µM; in [6], more than 100 µM. For the same molecule, the TGI in [7], in [8], in assay [9] and in [10] was more than 100 µM each time.

Take `CNC(=O)/C=C/C1=CN2C(=O)c3ccc(C)c(O)c3NC(OC)C2C1` (centres undefined): the TGI in assay [1] was less than 0.0173 µM; in [2], 0.08 µM; in assay [3], 1.03 µM; in assay [4] it was 1.67 µM; in assay [5] it was 4.48 µM; in assay [6], less than 0.0202 µM. For the same molecule, the TGI in assay [7] was less than 0.0131 µM; in assay [8], 12.1 µM; in [9], more than 4.64 µM; in [10], 9.15 µM.

With `CCOC(=O)C1=C(C)NC2SC(=O)/C(=C\c3cccc(Cl)c3)N2C1c1ccccc1` (centres undefined), the GI50 in assay [1], in assay [2], in assay [3], in assay [4], in [5] and in [6] was more than 100 µM each time. Besides, the GI50 in assay [7], in assay [8], in assay [9] and in assay [10] was more than 100 µM in each case. In addition, the TGI in assay [1], in assay [2], in assay [3], in assay [4], in [5] and in assay [6] was more than 100 µM in each case. The TGI in assay [7], in assay [8], in assay [9] and in [10] was more than 100 µM each time.

Consider `CC(=O)OC1C(O)C(C)OC(OC2C(OC(=O)C3CCC4C(C3)OC3(CC(OC(=O)/C=C/c5ccccc5)C(C)CO3)C43CO3)OC(C)C(O)C2OC(C)=O)C1O` (centres undefined), for which the TGI in assay [1] was determined as 0.0148 µM; in assay [2], 0.0499 µM; in assay [3], 0.141 µM; in assay [4], 0.0493 µM; in assay [5] it was 1.82 µM; in assay [6], 0.0181 µM. Further, the TGI amounted to 0.0305 µM in [7], 0.125 µM in [8], 0.0785 µM in [9] and 0.132 µM in [10].

`Cn1cc(-c2csc(-c3ccccc3)n2)c2cccnc21`: the GI50 in assay [1] was 16.7 µM; in assay [2] it was 16.8 µM; in assay [3] it was 16 µM; in assay [4], 13.6 µM; in [5], 12.8 µM; in [6], 14 µM. The GI50 in assay [7] is 15.7 µM; in assay [8], 15 µM; in [9] it was 13.8 µM; in assay [10], 14.4 µM. The TGI in assay [1] is 31.1 µM; in [2] it was 43 µM; in assay [3] it was 31 µM; in assay [4], 28 µM; in assay [5], 31.7 µM; in assay [6] it was 26.9 µM. In addition, the TGI in assay [7] worked out at 31.5 µM; in assay [8] it was 28.2 µM; in assay [9], 26.7 µM; in [10] it was 28.2 µM.

Regarding `CC1(C)N=C(N)N=C(N)N1c1ccc(OCC(=O)Nc2ccc(S(=O)(=O)F)cc2Cl)c(Cl)c1`, the GI50 in [1] was 23.2 µM; in assay [2] it was 3.79 µM; in assay [3], 0.591 µM; in assay [4] it was 5.73 µM; in assay [5], 4.15 µM; in assay [6], 21.1 µM. The GI50 is 37.6 µM in assay [7], 4.41 µM in assay [8], 2.7 µM in [9] and 3.13 µM in assay [10]. The TGI in assay [1], in assay [2], in assay [3], in [4], in assay [5] and in [6] was more than 100 µM throughout. Moreover, the TGI in assay [7], in assay [8], in assay [9] and in assay [10] was more than 100 µM in each case.
